# Experimental data: patent US20140051685A1, “THERAPEUTIC TREATMENT FOR METABOLIC SYNDROME, TYPE 2 DIABETES, OBESITY OR PREDIABETES” (priority 2010, published 2014)
# What was measured:
# Format in all cases: in vivo
# [1] = system: obese, diabetic female ob/ob mice; assay: Fusaric acid plus SKF 38393 in ob/ob mice; settings: fusaric acid 15 mg/kg, SKF 38393 10 mg/kg
# Protocol: Fusaric acid is a dopamine beta hydroxylase inhibitor that reduces noradrenaline synthesis in noradrenergic neurons. It is not present in dopaminergic neurons and thus exerts no such effect there. SKF38393 is a post-synaptic dopamine D1 receptor agonist with no marked influence on noradrenergic neurons. A study was conducted to determine the interactive effects of fusaric acid plus SKF 38393 on body fat store levels, and blood glucose and plasma triglyceride levels in ob/ob mice. The ob/ob mouse is hyperphagic, obese, insulin resistant, diabeteic and dyslipidemic due to the absence of functional leptin as a result of a mutation in this gene.
# Obese, diabetic female ob/ob mice (body weight of approximately 33 g) maintained on 14 hour daily photoperiods, housed one per cage and allowed to feed ad libitum were randomized to once daily treatment with either fusaric acid (15 mg/kg; n=6-8), SKF 38393 (10 mg/kg; n=6-8), both fusaric acid (15 mg/kg) and SKF 38393 (10 mg/kg) (n=6-8), or vehicle (control group; n=6-8) for a 14 day period. On the fifteenth day of the study and approximately 24 hours after the final treatment animals were sacrificed and blood samples were obtained for the analyses of blood glucose, plasma free fatty acid and triglyceride levels. Relative to controls, fusaric acid raised blood glucose from 380±30 mg/dl to 430±30 mg/dl and SKF 38393 reduced blood glucose to 290±55 mg/dl. However, fusaric acid plus SKF 38393 reduced blood glucose to 180±20 mg/dl. […] Neither fusaric acid nor SKF 38393 had any effect on retroperitoneal fat pad weight (735±43 mg and 735±50 mg, respectively versus control value of 727±25 mg) however, the combination of fusaric acid plus SKF 38393 reduced retroperitoneal fat pad weight to 680±25 mg.
# [2] = system: high fat fed, hypertensive SHR rats; assay: Quinelorane plus fusaric acid in high fat fed, hypertensive SHR rats; settings: SHR rats on high fat diet
# Protocol: Male SHR rats were maintained on 14 hour daily photoperiods and fed a high fat diet (60% of energy from fat; 5.24 kcal/gram weight) for 3 weeks and then divided into different groups and treated with either quinelorane (Q; a dopamine D2/D3 mixed receptor agonist) (0.075 mg/kg), fusaric acid (FA; a dopamine beta hydroxylase inhibitor) (12.5 mg/kg), quinelorane (0.075 mg/kg) plus FA (Q/FA) (12.5 mg/kg), or vehicle at 13 hours after light onset for 17 days. The doses of Q and FA were set at less than half maximal to effect central dopamine receptor binding functions and dopamine beta hydroxylase activity, respectively. […] Blood pressure measurements were taken at 14 days of treatment and animals were sacrificed at 18 days of treatment for analyses of body fat and humoral factors and metabolites. […] Respecting blood glucose, although both Q and FA reduced glucose level relative to vehicle, only the Q/FA regimen normalized blood glucose in these animals relative to vehicle (FIG. 6).
# [3] = system: obese, diabetic female ob/ob mice; assay: Low dose amphetamine with or without bromocriptine in ob/ob mice; settings: amphetamine 3 mg/kg
# Description: Amphetamine is a selective presynaptic dopamine release enhancer. It also acts as a presynaptic noradrenergic release enhancer but at higher dosages that will counter the effect of the dopamine reuptake inhibition activity to improve metabolism. However, addition of a dopamine D2 receptor agonist will act to reduce any amphetamine-induced increase in synaptic noradrenaline level and therefore should produce a more pronounced desired effect on metabolic disease than amphetamine or the D2 receptor agonist alone. A study was conducted to determine the effects of low dose amphetamine (3 mg/kg) with or without the dopamine D2 receptor agonist bromocriptine (5-<10 mg/kg dose) upon body weight gain, blood glucose, plasma free fatty acid and triglyceride levels in obese, diabetic mice (ob/ob strain). […] The ob/ob mouse is hyperphagic, obese, insulin resistant, diabetic and dyslipidemic due to the absence of functional leptin as a result of a mutation in this gene. Starvation or calorie restriction of these mice leads to increases in plasma free fatty acid levels that can function over the long term to worsen diabetes.
# On the fifteenth day of the study and approximately 24 hours after the final treatment animals were sacrificed and blood samples were obtained for the analyses of blood glucose, plasma free fatty acid and triglyceride levels. […] Amphetamine had no effect on final body weight however, amphetamine plus bromocriptine reduced final body weight from 44±1 g to 39=/- 1.5 g.
# [4] = relative to vehicle, 18 days of treatment
smiles,measurement,setting,value
"Cl.Oc1cc2c(cc1O)C(c1ccccc1)CNCC2 (stereo not drawn) [SKF 38393, 1-phenyl-7,8-dihydroxy-2,3,4,5-tetrahydro-1H-3-benzazepine hydrochloride]",retroperitoneal fat pad weight,"[1]; 14 days, control value 727±25",735 ± 50 mg
same,plasma triglyceride level,"[1]; 14 days, controls 155±15",130 ± 7 mg/dL
same,blood glucose,"[1]; alone or both, once daily 14 days, controls 380±30",290 ± 55 mg/dL
CCCN1CCC[C@@H]2Cc3nc(N)ncc3C[C@H]21 [Q],change from baseline body weight (weight loss),"[2]; Q 0.075 mg/kg, FA 12.5 mg/kg, 17 days, at 13 hours after light onset, FIGS. 1 and 2",modest if any effects
same,desensitization to the effects on weight loss,"[2]; Q 0.075 mg/kg, weight regained to baseline values by treatment end",exhibited desensitization
same,plasma endothelin-1 (endothelin 1-21 fragment) level,[2]; [4],no significant effect
same,plasma nitric oxide level,[2]; [4],no significant effect
same,blood glucose level,"[2]; relative to vehicle, FIG. 6",reduced
CC(N)Cc1ccccc1 (stereo not drawn) [amphetamine],effect on final body weight,[3]; 14 days,no effect
same,plasma free fatty acid levels,"[3]; 14 days, controls 900±100",510 ± 30 µM
same,plasma triglyceride levels,"[3]; bromocriptine 5-<10 mg/kg, 14 days, controls 175±21",70 ± 7 mg/dL
same,blood glucose,"[3]; bromocriptine 5-<10 mg/kg, once daily 14 days, controls 422±46",348 ± 22 mg/dL
